# Reference: patent US8835632B2, “Methods to increase the photostability of dyes” (The University of North Carolina at Chapel Hill, priority 2007, dated 2014)
# Key:
# [1] = Relative rate of reaction with chemically generated singlet oxygen in DMSO; format: physicochemical; conditions: 2.5 mM, 1O2 from 1,4-dimethylnaphtalene-1,4-endoperoxide
# Method: The bleaching rates for the dyes differed by two orders of magnitude. The relative rate constants kr (rel) for product formation during reaction with singlet oxygen were measured by comparing the percent conversions for dyes dissolved in DMSO containing a fixed amount of ^1O2 (2.5 mM solutions; ^1O2 generated by decomposition of 1,4-dimethylnaphtalene-1,4-endoperoxide). The rates were generally higher for dyes with a polar ground state (1a, 2a, 2b, 2d) than for the dyes with their ground state at the “cyanine limit” (3, 4). […] Olefins without allylic hydrogens react with singlet oxygen to form dioxetanes. Dioxetanes are unstable and decompose, to form two carbonyl compounds.
# [2] = Methylene Blue-sensitized photobleaching (reactivity of the dyes with singlet oxygen); format: physicochemical; conditions: methanol, [dye]=[Methylene Blue]=3.33 μM, filtered light λ>630 nm, 40 min
# Method: The reactivity of the dyes with singlet oxygen also was examined to confirm that the cyano substituent group affected photobleaching mediated by singlet oxygen. Singlet oxygen was generated using the photosensitizer Methylene Blue (MB), which has a high quantum yield for singlet oxygen production and allows singlet oxygen to be introduced into the system without excitation of the merocyanine dye. See Murov and Carmichael, Handbook of Photochemistry, 2nd ed.; Dekker: New York (1993).
# 15 mL of a methanol solution containing dye (3.33 μM) and Methylene Blue (3.33 μM) were placed in a 20-mL Borosilicate Glass Scintillation Vial (Fisher Scientific). The vial was illuminated with the light of a 90 W halogen reflector lamp (120 V, 1280 Lumens, 12 Degree Beam Spread). […] The length of the filtering solution was 1.0 cm. The distance between the vial and the lamp was 11.0 cm. A fan (120 V, 150 mm)) was used to cool the vial. At selected time intervals a sample was removed and the sample absorbance spectrum was obtained on a Hewlett-Packard 8453 diode array spectrophotometer (Agilent, Technologies, Inc.). Rate constants of dye photobleaching were obtained from a plot of ln(A) vs. time (see Table 5).
# Again, without wishing to be bound to any one particular theory, the greater reactivity of S-SO vs. I-SO toward singlet oxygen can be attributed to the greater electron donating capacity of the benzothiazole moiety relative to the indolenine ring system.
# [3] = from C6H6 to MeOH; cited from earlier work
# [4] = Photobleaching under constant illumination from a halogen tungsten lamp filtered through glass; format: physicochemical
# Text: The photostability of dyes can be important for applications in living cells. The mechanism of photobleaching for merocyanines of varying structure has been examined See Toutchkine et al., J. Am. Chem. Soc. 125:4132-4145 (2003). The photostability of the presently disclosed dyes was characterized by exposing them to constant illumination from a halogen tungsten lamp filtered through glass. This broad spectrum light source provided essentially equal intensity throughout the spectral range where the dyes absorb and where they would be irradiated in vivo (about 600 nm to about 650 nm).
# [5] = Absorption and fluorescence spectra, extinction coefficient, fluorescence quantum yield; format: physicochemical; conditions: for Suppression of extinction coefficient by introduction of the cyano-group: in methanol
# Method: Absorption spectra were recorded on a Hewlett-Packard 8453 diode array UV-Vis spectrophotometer (Agilent Technologies, Inc., Santa Clara, Calif.), and fluorescence measurements were taken on a SPEX® Fluorolog 2 spectrofluorometer (HORIBA Jobin Yvon, Inc., Edison, N.J.). Melting points are not corrected. NMR spectra were obtained on a Varian Mercury 300 MHz (Varian, Inc., Palo Alto, Calif.) or on a Bruker 300 MHz DRX 300 spectrometer (Bruker Biospin Corp., Billerica, Mass.). Mass spectra were obtained on a Hewlett-Packard 1100 high-performance liquid chromatograph equipped with an 1100 mass selective detector (MS-ESI) (Agilent Technologies, Inc.).
# With decreasing solvent polarity, the absorption maximum of dyes 1a-b, 2a-d shifted to longer wavelengths, and the intensity of the transition increased (Table 10, FIG. 11).
# The SCRF/VSCRF predicted emission energies and the solute dipole moments before and after the vertical emission process are given in Table 16. The dipole moments of AI-BA(4) and AI-SO(4) are further decreased on the S1 surface after geometry relaxation (in MeOH solution), and then increased during the S1→S0 transition. This observation is consistent with the blue shifts of the emission bands of AI-BA(4) and AI-SO(4) with increasing solvent polarity from C6H6 to MeOH. By contrast, the dipole moment of I-SO further decreases after S1 state geometry relaxation, and then decreases during the vertical emission process. This observation also is in agreement with the red shift of the I-SO emission band with increasing solvent polarity from C6H6 to MeOH. Similarly to the absorption case, a negligible red shift (ΔEem=0.017 eV) was predicted for the emission band of I-TBA with increasing solvent polarity. A small red shift from C6H6 to DMF (with ΔEem=0.020 eV, or Δλmax=6 nm) is observed. The nearly equal emission energy observed in C6H6 and MeOH can again result in the explicit interactions between the solute and solvent molecules.
smiles,measurement,setting,value
"CN1/C(=C/C=C/C=C2/C(=O)c3ccccc3S2(=O)=O)C(C)(C)c2ccccc21 [I-SO, (2Z)-2-[(2E,4E)-4-(1,3,3-trimethyl-1,3-dihydro-2H-indol-2-ylidene)but-2-en-1-ylidene]-1-benzothiophen-3(2H)-one 1,1-dioxide, reference compound]",kr(rel) (relative rate constants for product formation during reaction with singlet oxygen produced chemically),[1],5.24
same,Bleaching on irradiation of Methylene Blue,[2],27%
same,Absorption wavelength shift,[3],15 nm
same,Emission wavelength shift,[3],12 nm
same,kph * 10^6 (absolute rate of photobleaching),[4]; C6H6,1.11 s^−1
same,kph(rel) (relative rate of photobleaching),"[4]; C6H6, with respect to standard I-SO in C6H6",1.00
same,kph * 10^6 (absolute rate of photobleaching),[4]; MeOH,0.53 s^−1
same,kph(rel) (relative rate of photobleaching),"[4]; MeOH, with respect to standard I-TBA in MeOH",1.56
same,Absorbance λmax,[5]; Butanol (BuOH),587 nm
same,Emission λmax,[5]; Butanol (BuOH),618 nm
same,Extinction coefficient ε,[5]; Butanol (BuOH),134000
same,Fluorescence quantum yield Φ,[5]; Butanol (BuOH),0.2
same,Absorption energy Eabs Exp,[5]; C6H6,2.172 eV
same,Emission energy Eem Exp,[5]; C6H6,2.056 eV
same,Absorption energy Eabs Exp,[5]; MeOH,2.116 eV
same,Emission energy Eem Exp,[5]; MeOH,2.016 eV
same,Absorbance λmax,[5]; Methanol (MeOH),586 nm
same,Emission λmax,[5]; Methanol (MeOH),615 nm
same,Extinction coefficient ε,[5]; Methanol (MeOH),143000
same,Fluorescence quantum yield Φ,[5]; Methanol (MeOH),0.03
same,Observed absorption (ε),"[5]; Table 10, BuOH",(134000)
same,Observed absorption λmax,"[5]; Table 10, BuOH",587 nm
same,Observed absorption (ε),"[5]; Table 10, C6H6",(109000)
same,Observed absorption λmax,"[5]; Table 10, C6H6",571 nm
same,Observed absorption (ε),"[5]; Table 10, DMF",(143000)
same,Observed absorption λmax,"[5]; Table 10, DMF",586 nm
same,Observed absorption (ε),"[5]; Table 10, MeOH",(143000)
same,Observed absorption λmax,"[5]; Table 10, MeOH",586 nm
same,Observed absorption (ε),"[5]; Table 10, OcOH",(125000)
same,Observed absorption λmax,"[5]; Table 10, OcOH",587 nm
same,Absorption Exp wavelength,"[5]; Table 12, C6H6",571 nm
same,Absorption Exp wavelength,"[5]; Table 12, MeOH",586 nm
same,Observed emission (Φ),"[5]; Table 15, BuOH",0.54
same,Observed emission λmax,"[5]; Table 15, BuOH",618 nm
same,Observed emission (Φ),"[5]; Table 15, C6H6",0.42
same,Observed emission λmax,"[5]; Table 15, C6H6",603 nm
same,Observed emission (Φ),"[5]; Table 15, DMF",0.97
same,Observed emission λmax,"[5]; Table 15, DMF",615 nm
same,Observed emission (Φ),"[5]; Table 15, MeOH",0.08
same,Observed emission λmax,"[5]; Table 15, MeOH",615 nm
same,Observed emission (Φ),"[5]; Table 15, OcOH",0.98
same,Observed emission λmax,"[5]; Table 15, OcOH",617 nm
same,Suppression of extinction coefficient by introduction of the cyano-group,[5],62%
"CN1/C(=C(C#N)/C=C/C=C2/C(=O)c3ccccc3S2(=O)=O)C(C)(C)c2ccccc21 [I-SO-CN, (2Z,3E,5Z)-5-(1,1-dioxido-3-oxo-1-benzothiophen-2(3H)-ylidene)-2-(1,3,3-trimethyl-1,3-dihydro-2H-indol-2-ylidene)pent-3-enenitrile]",Bleaching on irradiation of Methylene Blue,[2],0%
same,Absorbance λmax,[5]; Butanol (BuOH),527 nm
same,Emission λmax,[5]; Butanol (BuOH),594 nm
same,Extinction coefficient ε,[5]; Butanol (BuOH),56000
same,Fluorescence quantum yield Φ,[5]; Butanol (BuOH),0.04
same,Absorbance λmax,[5]; Methanol (MeOH),528 nm
same,Emission λmax,[5]; Methanol (MeOH),595 nm
same,Extinction coefficient ε,[5]; Methanol (MeOH),55000
same,Fluorescence quantum yield Φ,[5]; Methanol (MeOH),0.03
"CCN1/C(=C/C=C/C=C2/C(=O)c3ccccc3S2(=O)=O)Sc2ccccc21 [S-SO, (2Z)-2-[(2E,4Z)-4-(3-ethyl-1,3-benzothiazol-2(3H)-ylidene)but-2-en-1-ylidene]-1-benzothiophen-3(2H)-one 1,1-dioxide, reference compound]",Bleaching on irradiation of Methylene Blue,[2],43%
same,Absorbance λmax,[5]; Butanol (BuOH),604 nm
same,Emission λmax,[5]; Butanol (BuOH),622 nm
same,Extinction coefficient ε,[5]; Butanol (BuOH),163000
same,Fluorescence quantum yield Φ,[5]; Butanol (BuOH),0.12
same,Absorbance λmax,[5]; Methanol (MeOH),598 nm
same,Emission λmax,[5]; Methanol (MeOH),617 nm
same,Extinction coefficient ε,[5]; Methanol (MeOH),143000
same,Fluorescence quantum yield Φ,[5]; Methanol (MeOH),0.05
same,Suppression of extinction coefficient by introduction of the cyano-group,[5],34%
"CCN1/C(=C(C#N)/C=C/C=C2/C(=O)c3ccccc3S2(=O)=O)Sc2ccccc21 [S-SO-CN, (2E,3E,5Z)-5-(1,1-dioxido-3-oxo-1-benzothien-2(3H)-ylidene)-2-(3-ethyl-1,3-benzothiazol-2(3H)-ylidene)pent-3-enenitrile]",Bleaching on irradiation of Methylene Blue,[2],no bleaching
same,Absorbance λmax,[5]; Butanol (BuOH),550 nm
same,Emission λmax,[5]; Butanol (BuOH),599 nm
same,Extinction coefficient ε,[5]; Butanol (BuOH),91000
same,Fluorescence quantum yield Φ,[5]; Butanol (BuOH),0.16
same,Absorbance λmax,[5]; Methanol (MeOH),547 nm
same,Emission λmax,[5]; Methanol (MeOH),597 nm
same,Extinction coefficient ε,[5]; Methanol (MeOH),95000
same,Fluorescence quantum yield Φ,[5]; Methanol (MeOH),0.05
CCN1C(=O)\C(=C/C=C/C=C2\Sc3ccccc3N2CC)C(O)N(CC)C1=S (stereo not shown) [S-TBA],Absorption wavelength shift,[3],17 nm
same,Emission wavelength shift,[3],11 nm
